From BindingDB's records for doi:10.1016/j.bmcl.2003.07.021 (Vicuron Pharmaceuticals, 2003)

Target: DNA gyrase (Escherichia coli)
Experiment: Inhibitory concentration against Escherichia coli by Escherichia coli DNA gyrase gel-based supercoil assay

For `CCOC(=O)c1cn(CC)c2cc(N3CCN(C(=O)c4ccc(N5C[C@H](CNC(C)=O)OC5=O)cc4F)CC3)c(F)cc2c1=O` [7-(4-{4-[(S)-5-(Acetylamino-methyl)-2-oxo-oxazolidin-3-yl]-2-fluoro-benzoyl}-piperazin-1-yl)-1-ethyl-6-fluoro-4-oxo-1,4-dihydro-quinoline-3-carboxylic acid ethyl ester], which IC50 is on record?
Its IC50 is 12.5 µM.
